Measurements taken from US8962637B2, “Bicyclic compounds and their uses as dual c-SRC/JAK inhibitors” (Debiopharm S.A., priority 2010, dated 2015).

How the values were obtained:
[1] = biological target: c-Src (Homo sapiens (Human), UniProt P12931); experiment: TR-FRET c-Src kinase assay; assay type: biochemical; details: ATP 50 μM; for inhibition at 0.1 µM: read-out: c-SRC % inhibition at 100 nM, 100 nM; for inhibition at 1 µM: read-out: c-SRC % inhibition at 1 μM
Procedure: (§1) Compounds were screened in the TR-FRET assay for JAK2 and c-Src kinase inhibition. Ultra light poly GT (Perkin Elmer) was used as the substrate for JAK2 and c-Src with the ATP concentration of 10 μM and 50 μM, respectively. […] The dose-response curve fitting was done using GraphPad Prism software.

[2] = system: A549 cells; experiment: Cell viability assay (XTT assay), A549; assay type: cell-based; details: Homo sapiens, 72 hrs
Procedure: Next day compounds were added to cells and incubated for 72 hrs. Compound treatment was done in triplicates. After 72 hrs cell culture media was aspirated from the wells and XTT working solution was added and plates were incubated for 2-5 hrs. […] EC50 values were calculated using Graphpad Prism. Tumor cell lines used in the examples of the present invention were procured from ATCC. Description of the cell lines is included in the following table: […]

[3] = biological target: JAK2 (Homo sapiens (Human), UniProt O60674); experiment: TR-FRET JAK2 kinase assay; assay type: biochemical; details: ATP 10 μM; for inhibition at 0.1 µM: read-out: JAK2 % inhibition at 100 nM, 100 nM; for inhibition at 1 µM: read-out: JAK2 % inhibition at 1 μM
Procedure: as §1

[4] = system: A431 cancer cell line; experiment: Inhibition of cell growth in A431; assay type: cell-based; details: Homo sapiens, A-431
[5] = system: Mda-Mb-231 cells; experiment: Cell viability assay (XTT assay), Mda-Mb-231; assay type: cell-based; details: Homo sapiens, 72 hrs
Procedure: Mda-Mb-231 or A549 cells were seeded onto a 96-well micro plate. Next day compounds were added to cells and incubated for 72 hrs. Compound treatment was done in triplicates. After 72 hrs cell culture media was aspirated from the wells and XTT working solution was added and plates were incubated for 2-5 hrs. The absorbance of the samples was measured with a spectrophotometer at a wavelength of 465 nm. EC50 values were calculated using Graphpad Prism. Tumor cell lines used in the examples of the present invention were procured from ATCC. Description of the cell lines is included in the following table: […]

[6] = system: pStat3; experiment: In-Cell-Western blot assay for pStat3 (ICW) in A431 cells; assay type: cell-based; details: Homo sapiens, A-431, 2 hrs, read-out: pSTAT3 inhibition
Procedure: A431 cells were seeded onto a 96-well micro plate. After overnight serum starvation cells were incubated with compounds for 2 hrs. Cells were fixed with 4% paraformaldehyde in PBS and then permeabilized with 0.1% Triton X-100 in PBS (PBST). Cells were blocked with 5% BSA in PBST for 2 hrs, followed by overnight incubation with phospho Stat3 antibody. Cells were washed and incubated with europium-labeled anti-rabbit secondary antibody for 2 hrs. After washing enhancement solution was added to the wells. The micro-plate was read on the Victor instrument at the Europium setting. The Hoechst readings were used to normalize for cell number. IC50 values were calculated with the normalized europium values using Graphpad Prism.

c-Src, sequence (P12931 whole entry, looked up): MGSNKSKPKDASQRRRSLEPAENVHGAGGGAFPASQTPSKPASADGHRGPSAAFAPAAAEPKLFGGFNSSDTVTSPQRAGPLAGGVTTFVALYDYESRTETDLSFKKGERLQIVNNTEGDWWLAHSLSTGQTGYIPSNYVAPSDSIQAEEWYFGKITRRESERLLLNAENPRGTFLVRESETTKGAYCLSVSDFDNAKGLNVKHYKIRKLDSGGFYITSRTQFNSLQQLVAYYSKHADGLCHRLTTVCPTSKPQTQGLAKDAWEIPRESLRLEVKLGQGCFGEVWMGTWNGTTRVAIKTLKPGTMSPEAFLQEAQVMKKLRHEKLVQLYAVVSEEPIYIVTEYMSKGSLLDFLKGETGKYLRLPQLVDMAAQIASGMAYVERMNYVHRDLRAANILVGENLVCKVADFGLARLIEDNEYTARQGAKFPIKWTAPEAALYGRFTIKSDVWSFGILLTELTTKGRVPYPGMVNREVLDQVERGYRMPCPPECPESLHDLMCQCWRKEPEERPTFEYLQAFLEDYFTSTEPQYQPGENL
JAK2, sequence (O60674 whole entry): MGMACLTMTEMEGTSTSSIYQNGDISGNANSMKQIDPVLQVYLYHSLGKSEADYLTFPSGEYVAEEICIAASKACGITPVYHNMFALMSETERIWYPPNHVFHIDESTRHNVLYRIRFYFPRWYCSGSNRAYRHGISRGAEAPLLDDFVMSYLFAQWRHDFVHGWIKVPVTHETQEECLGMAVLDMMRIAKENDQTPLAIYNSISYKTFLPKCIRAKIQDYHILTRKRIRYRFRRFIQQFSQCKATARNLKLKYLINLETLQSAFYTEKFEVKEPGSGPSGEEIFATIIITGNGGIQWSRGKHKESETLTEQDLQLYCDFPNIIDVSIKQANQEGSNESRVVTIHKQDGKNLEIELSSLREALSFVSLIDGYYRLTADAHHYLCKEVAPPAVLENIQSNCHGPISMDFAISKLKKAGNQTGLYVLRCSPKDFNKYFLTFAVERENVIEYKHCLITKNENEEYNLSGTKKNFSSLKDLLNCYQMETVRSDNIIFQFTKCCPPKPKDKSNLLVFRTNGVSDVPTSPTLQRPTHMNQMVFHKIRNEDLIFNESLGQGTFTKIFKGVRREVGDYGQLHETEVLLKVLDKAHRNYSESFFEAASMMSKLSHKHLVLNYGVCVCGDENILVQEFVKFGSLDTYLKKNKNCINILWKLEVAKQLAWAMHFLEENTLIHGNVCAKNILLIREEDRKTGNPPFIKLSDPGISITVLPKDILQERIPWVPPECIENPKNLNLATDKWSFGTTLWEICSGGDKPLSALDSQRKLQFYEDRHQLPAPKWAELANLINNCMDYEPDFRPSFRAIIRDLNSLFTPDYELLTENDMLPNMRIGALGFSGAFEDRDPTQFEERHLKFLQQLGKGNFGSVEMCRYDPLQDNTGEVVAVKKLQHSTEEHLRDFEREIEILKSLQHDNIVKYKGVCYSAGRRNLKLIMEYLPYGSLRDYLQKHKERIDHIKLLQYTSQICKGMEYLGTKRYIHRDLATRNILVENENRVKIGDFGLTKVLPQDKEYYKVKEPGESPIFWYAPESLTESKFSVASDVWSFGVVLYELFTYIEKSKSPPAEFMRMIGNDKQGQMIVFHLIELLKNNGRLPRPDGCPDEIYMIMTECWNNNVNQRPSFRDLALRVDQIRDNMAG

SMILES	IC50 [1]	EC50 [2]	IC50 [3]	EC50 [4]	EC50 [5]	IC50 [6]	inhibition at 0.1 µM [3]	inhibition at 1 µM [3]	inhibition at 0.1 µM [1]	inhibition at 1 µM [1]
Cc1ccc(NC(=O)c2cccc(C(F)(F)F)c2)cc1N1CCc2nc(Nc3ccc(OCCN4CCCC4)cc3)ncc2C1=O [Compound 7, N-(4-Methyl-3-{5-oxo-2-[4-(2-pyrrolidin-1-yl-ethoxy)-phenylamino]-7,8-dihydro-5H-pyrido[4,3-d]pyrimidin-6-yl}-phenyl)-3-trifluoromethyl-benzamide]	16 nM	3400 nM	83 nM	1450 nM	3600 nM	450 nM				
Cc1ccc(NC(=O)c2cccc(C(F)(F)F)c2)cc1N1CCc2nc(Nc3ccc(CC(=O)N4CCN(C)CC4)cc3)ncc2C1=O [Compound 76, N-[4-Methyl-3-(2-{4-[2-(4-methyl-piperazin-1-yl)-2-oxo-ethyl]-phenylamino}-5-oxo-7,8-dihydro-5H-pyrido[4,3-d]pyrimidin-6-yl)-phenyl]-3-trifluoromethylbenza-mide]	30 nM		61 nM	135 nM	2150 nM	130 nM				
Cc1ccc(NC(=O)c2cccc(C(F)(F)F)c2)cc1N1CCc2nc(Nc3ccc(C(=O)NCCCN4CCCC4)cc3)ncc2C1=O [Compound 77, N-(4-methyl-3-(5-oxo-2-(4-(3-(pyrrolidin-1-yl)propylcarbamoyl)phenylamino)-7,8-dihydropyrido[4,3-d]pyrimidin-6(5H)-yl)phenyl)-3-(trifluoromethyl) benzamide]	17 nM			512 nM	4920 nM	510 nM	80%	96%		
CNC(=O)c1ccc(Nc2ncc3c(n2)CCN(c2cc(NC(=O)c4cccc(C(F)(F)F)c4)ccc2C)C3)cn1 [Compound 83, 5-{6-[2-Methyl-5-(3-trifluoromethyl-benzoylamino)-phenyl]-5,6,7,8-tetrahydro-pyrido[4,3-d]pyrimidin-2-ylamino}-pyridine-2-carboxylic acid methylamide]	4 nM		32 nM	240 nM	305 nM	240 nM				
Cc1ccc(NC(=O)c2cccc(C(C)(C)C)c2)cc1N1CCc2nc(Nc3ccc(N4CCN(C)CC4)cc3)ncc2C1=O [Compound 86]		78 nM		570 nM	530 nM	580 nM				
Cc1ccc(NC(=O)c2cccc(C(F)(F)F)c2)cc1N1CCc2nc(Nc3cncnc3)ncc2C1 [Compound 94, N-{4-Methyl-3-[2-(pyrimidin-5-ylamino)-7,8-dihydro-5H-pyrido[4,3-d]pyrimidin-6-yl]-phenyl}-3-trifluoromethyl-benzamide]	2 nM		19 nM	180 nM	50 nM	160 nM				
Cc1ccc(NC(=O)c2cccc(C(F)(F)F)c2)cc1N1CCc2nc(Nc3ccc(C(=O)NCCO)cc3)ncc2C1 [Compound 98]	1 nM		7 nM	61 nM	50 nM	60 nM				
Cc1ccc(NC(=O)c2cccc(C(F)(F)F)c2)cc1N1CCc2nc(Nc3ccc(C(=O)N4CCCC4)cc3)ncc2C1 [Compound 99, N-(4-Methyl-3-{2-[4-(pyrrolidine-1-carbonyl)-phenylamino]-7,8-dihydro-5H-pyrido[4,3-d]pyrimidin-6-yl}-phenyl)-3-trifluoromethyl-benzamide]	6 nM		14 nM	290 nM	120 nM	300 nM				
Cc1ccc(NC(=O)c2ccc(C(F)(F)F)s2)cc1N1CCc2nc(Nc3ccc(OCCN4CCCC4)cc3)ncc2C1 [Compound 106, 5-Trifluoromethyl-thiophene-2-carboxylic acid (4-methyl-3-{2-[4-(2-pyrrolidin-1-yl-ethoxy)-phenylamino]-7,8-dihydro-5H-pyrido[4,3-d]pyrimidin-6-yl}-phenyl)-amide]	2 nM		18 nM	220 nM	310 nM	220 nM	85%	98%	99%	100%
Cc1ccc(NC(=O)N2CCCCC2)cc1N1CCc2nc(Nc3ccc(OCCN4CCCC4)cc3)ncc2C1 [Compound 107, Piperidine-1-carboxylic acid (4-methyl-3-{2-[4-(2-pyrrolidin-1-yl-ethoxy)-phenylamino]-7,8-dihydro-5H-pyrido[4,3-d]pyrimidin-6-yl}-phenyl)-amide]	1 nM		40 nM	120 nM	610 nM	120 nM	72%	94%	93%	98%
Cc1ccc(NC(=O)c2cccc(C(F)(F)F)c2)cc1N1CCc2nc(Nc3ccc(C(=O)N4CCN(C)CC4)nc3)ncc2C1 [Compound 132, N-(4-Methyl-3-{2-[6-(4-methyl-piperazine-1-carbonyl)-pyridin-3-ylamino]-7,8-dihydro-5H-pyrido[4,3-d]pyrimidin-6-yl}-phenyl)-3-trifluoromethyl-benzamide]	5 nM	47 nM	3 nM		41 nM	480 nM				
Cc1ccc(NC(=O)c2cccc(C(F)(F)F)c2)cc1N1CCc2nc(Nc3cccc(CN4CCN(C)CC4)c3)ncc2C1 [Compound 137, N-(4-Methyl-3-{2-[3-(4-methyl-piperazin-1-ylmethyl)-phenylamino]-7,8-dihydro-5H-pyrido[4,3-d]pyrimidin-6-yl]-phenyl)-3-trifluoromethyl-benzamide]	7 nM	426 nM		670 nM	74 nM	670 nM				
Cc1ccc(NC(=O)c2cccc(C(F)(F)F)c2)cc1N1CCc2nc(Nc3ccc(S(=O)(=O)NC4CC4)cc3)ncc2C1 [Compound 165, N-{3-[2-(4-Cyclopropylsulfamoyl-phenylamino)-7,8-dihydro-5H-pyrido[4,3-d]pyrimidin-6-yl]-4-methyl-phenyl}-3-trifluoromethyl-benzamide]	16 nM		54 nM	320 nM	440 nM	257 nM	74%	93%	93%	98%
Cc1ccc(NC(=O)c2cccc(C(F)(F)F)c2)cc1N1CCc2nc(Nc3ccc(OCCCN4CCN(C)CC4)cc3)ncc2C1=O [Compound 180, N-[4-Methyl-3-(2-{4-[3-(4-methyl-piperazin-1-yl)-propoxy]-phenylamino}-5-oxo-7,8-dihydro-5H-pyrido[4,3-d]pyrimidin-6-yl)-phenyl]-3-trifluoromethyl-benzamide]		1480 nM		1070 nM	1620 nM	140 nM	67%	91%	66%	87%
O=C(Nc1ccc(Cl)c(N2CCc3nc(Nc4ccc(OCCN5CCCC5)cc4)ncc3C2=O)c1)c1cccc(C(F)(F)F)c1 [Compound 181, N-(4-Chloro-3-{5-oxo-2-[4-(2-pyrrolidin-1-yl-ethoxy)-phenylamino]-7,8-dihydro-5H-pyrido[4,3-d]pyrimidin-6-yl}-phenyl)-3-trifluoromethyl-benzamide]		2540 nM		1300 nM	3340 nM		85%	93%	53%	77%
Cc1ccc(NC(=O)c2cccc(C(F)(F)F)c2)cc1N1CCc2nc(Nc3ccc(OCCCN4CCOCC4)cc3)ncc2C1=O [Compound 182, N-(4-Methyl-3-{2-[4-(3-morpholin-4-yl-propoxy)-phenylamino]-5-oxo-7,8-dihydro-5H-pyrido[4,3-d]pyrimidin-6-yl}-phenyl)-3-trifluoromethyl-benzamide]		1080 nM		5070 nM	2760 nM		55%	85%	51%	80%
Cc1cnc(Nc2ccc(OCCN3CCCC3)cc2)nc1Nc1cccc(S(=O)(=O)NC(C)(C)C)c1 [TG101348, reference compound]		1200 nM			680 nM	> 10000 nM				
